# Test results reported in patent publication US9642854B2, “Flavanoid compounds and process for preparation thereof” (Council of Scientific & Industrial Research, priority 2009, dated 2017).
# Like-named read-outs stand apart in the source and are kept apart here.
# Columns and labels:
# [1] = tested on: H. pylori; assay: Anti H. pylori screening by disc diffusion susceptibility assay; assay type: cell-based, Helicobacter pylori; settings: for Inhibition zone diameter (score): 100 and 200 mg/disc (so in the source); for Inhibition zone diameter (score) / zone of inhibition at 100 µg/disc: 72 h; for zone of inhibition at 100 µg/disc: Helicobacter pylori, 100 and 200 μg/disc, majority of the strains, read-out: Activity class by inhibition zone diameter
# Experimental: The discs were impregnated with […] of each of the compounds, dissolved either in ethanol or DMSO, and the zone of inhibition was measured after 72 h of growth under microaerophilic conditions at 37° C. Inhibition zone diameter ranging 10-20 mm was given a score of ^+, 20-30 mm as ^++ and that of >30 mm as ^+++, as obtained employing dose range of […]/disc. The detailed structural information of the molecules is provided under ‘Description of the Compounds’.
# Methods and protocols for the determination of inhibition zone diameter are as stated under Experiment 1, and that of MIC values by microbroth dilution assay as in Experiment 3. ‘Nil’ means zone of inhibition below 10 mm.
# The anti H. pylori activity of all 16 flavonoid molecules, 2 naturally isolated and 14 synthetic derivatives, was screened by disc diffusion sensitivity assay employing 2 clinical strains HP001 and HP002, and three standard strains ATCC® 700392, 43504 and 49503. A 0.5 mL inoculum (10^8 CFU/mL) for each bacterial strain tested was flooded on freshly prepared Brain Heart Infusion (BHI) agar plates supplemented with 7% FCS, 0.5% IsoVitalex and 0.0025% DENT® and the discs (5 mm diameter) containing different compounds or antibiotics (dissolved either in ethanol or DMSO) were placed on the agar surface. After incubation for 3 days in a microaerophilic atmosphere at 37° C., the diameter of the zone of inhibition was measured (Glupczynsky, 1996; McNulty et al., 2002).
# [2] = tested on: H. pylori; assay: Anti H. pylori spectrum (MIC) by agar dilution method; assay type: cell-based, Helicobacter pylori; settings: for MIC50 / MIC: Helicobacter pylori; for MIC50: MIC against 50% of the strains of the panel, read-out: MIC50
# Experimental: MIC was determined using agar dilution assay following the CLSI® guidelines. Six clinical isolates and four standard strains were used for this study. Five microlitre of freshly grown 3-day old culture (˜1×10^8 CFU/mL) was streaked in plates containing 2-fold serial dilution of the compounds ranging […], and incubated under microaerophilic condition at 37° C. After 72 h, the plates were inspected visually for absence of growth to assess the MIC values. The experiment was performed in duplicates. MIC50 is defined as the dose (μg/ml) required for killing 50% of the strains.
# Plates contained two-fold serial dilutions of the compounds ranging from […]. Five microlitres of 3-day old freshly grown H. pylori culture (^˜10^8 CFU/mL) was inoculated onto drug-containing BHI agar plates supplemented with 7% FCS, 0.5% IsoVitalex and 0.0025% DENT®, which were then incubated for 3 days under microaerophilic condition at 37° C.
# [3] = 72 h, panel of 6 clinical isolates and 4 standard strains, read-out: MIC Range
# [4] = clinical strain HP001, read-out: MIC
# [5] = clinical strain HP002, read-out: MIC
# [6] = clinical strain HP003, read-out: MIC
# [7] = clinical strain HP004, read-out: MIC
# [8] = clinical strain HP005, read-out: MIC
# [9] = clinical strain HP006, read-out: MIC
# [10] = standard strain 43504, read-out: MIC
# [11] = standard strain 43629, read-out: MIC
# [12] = standard strain 49503, read-out: MIC
# [13] = standard strain 700392, read-out: MIC
# [14] = panel of 6 clinical isolates and 4 standard strains
Compound,Inhibition zone diameter (score) ([1]; ATCC standard strain 43504),Inhibition zone diameter (score) ([1]; ATCC standard strain 49503),Inhibition zone diameter (score) ([1]; ATCC standard strain 700392),zone of inhibition at 100 µg/disc [1],Inhibition zone diameter (score) ([1]; clinical strain HP001),Inhibition zone diameter (score) ([1]; clinical strain HP002),MIC50 ([2]; 72 h),"MIC [2, 3]",MIC50 [2],"MIC [2, 4]","MIC [2, 5]","MIC [2, 6]","MIC [2, 7]","MIC [2, 8]","MIC [2, 9]","MIC [2, 10]","MIC [2, 11]","MIC [2, 12]","MIC [2, 13]",also measured
"CN(C)CCCOc1cc(O)c2c(=O)cc(-c3ccccc3)oc2c1 [CHN-2, 7-(3-Dimethylamino-propoxy)-5-hydroxy-2-phenyl-chromen-4-one]",++ (20-30 mm as ^++),++ (20-30 mm as ^++),+ (Inhibition zone diameter ranging 10-20 mm was given a score of ^+),20 to 30 mm,++ (20-30 mm as ^++),++ (20-30 mm as ^++),~25 µg/mL,6.25 to 25 µg/mL,25 µg/mL,25 µg/mL,25 µg/mL,12.5 µg/mL,12.5 µg/mL,25 µg/mL,25 µg/mL,50 µg/mL,12.5 µg/mL,25 µg/mL,50 µg/mL,"MIC Range [2, 14]: 12.5 to 50 µg/mL"
"O=c1cc(-c2ccccc2)oc2cc(OCCCCN3CCOCC3)cc(O)c12 [CHM-3, 5-Hydroxy-7-(4-morpholin-4-yl-butoxy)-2-phenyl-chromen-4-one]",+ (Inhibition zone diameter ranging 10-20 mm was given a score of ^+),++ (20-30 mm as ^++),+ (Inhibition zone diameter ranging 10-20 mm was given a score of ^+),20 to 30 mm,++ (20-30 mm as ^++),++ (20-30 mm as ^++),50 µg/mL,50 to 100 µg/mL,50 µg/mL,50 µg/mL,50 µg/mL,100 µg/mL,100 µg/mL,100 µg/mL,100 µg/mL,50 µg/mL,100 µg/mL,50 µg/mL,50 µg/mL,"MIC Range [2, 14]: 50 to 100 µg/mL"
"CC1(C)S[C@@H]2[C@H](NC(=O)[C@H](N)c3ccc(O)cc3)C(=O)N2[C@H]1C(=O)O [Amoxicillin, reference compound]",–,–,–,–,–,–,–,0.016 to 0.0625 µg/mL,0.032 µg/mL,0.032 µg/mL,0.032 µg/mL,0.016 µg/mL,0.016 µg/mL,0.016 µg/mL,0.016 µg/mL,0.0625 µg/mL,0.032 µg/mL,0.032 µg/mL,0.0625 µg/mL,"inhibition zone diameter ([1]; clinical strains, 0.16 mg/disc): 10-16 mm; inhibition zone diameter ([1]; standard strains, 0.5-1.0 mg/disc): 13-15 mm"
"CN1CCN(CCCCOc2cc(O)c3c(=O)cc(-c4ccccc4)oc3c2)CC1 [NMC-3, 5-Hydroxy-7-[4-(4-methyl-piperazin-1-yl)-butoxy]-2-phenyl-chromen-4-one]",+ (Inhibition zone diameter ranging 10-20 mm was given a score of ^+),+ (Inhibition zone diameter ranging 10-20 mm was given a score of ^+),+ (Inhibition zone diameter ranging 10-20 mm was given a score of ^+),–,+ (Inhibition zone diameter ranging 10-20 mm was given a score of ^+),++ (20-30 mm as ^++),~25 µg/mL,6.25 to 25 µg/mL,25 µg/mL,25 µg/mL,25 µg/mL,< 12.5 µg/mL,< 12.5 µg/mL,< 12.5 µg/mL,< 12.5 µg/mL,25 µg/mL,25 µg/mL,25 µg/mL,25 µg/mL,–
"CN(C)CCCCOc1cc(O)c2c(=O)cc(-c3ccccc3)oc2c1 [CHN-3, 7-(4-Dimethylamino-butoxy)-5-hydroxy-2-phenyl-chromen-4-one]",+ (Inhibition zone diameter ranging 10-20 mm was given a score of ^+),++ (20-30 mm as ^++),+ (Inhibition zone diameter ranging 10-20 mm was given a score of ^+),20 to 30 mm,++ (20-30 mm as ^++),++ (20-30 mm as ^++),~25 µg/mL,6.25 to 25 µg/mL,25 µg/mL,25 µg/mL,25 µg/mL,< 12.5 µg/mL,< 12.5 µg/mL,< 12.5 µg/mL,< 12.5 µg/mL,25 µg/mL,25 µg/mL,25 µg/mL,25 µg/mL,–
"Cc1ncc([N+](=O)[O-])n1CCO [Metronidazole, reference compound]",–,–,–,–,–,–,–,–,50 µg/mL,–,> 100 µg/mL,100 µg/mL,100 µg/mL,25 µg/mL,25 µg/mL,50 µg/mL,1.56 µg/mL,1.56 µg/mL,1.56 µg/mL,–
"O=c1cc(-c2ccccc2)oc2cc(OCCCN3CCCCC3)cc(O)c12 [CPP-2, 5-Hydroxy-2-phenyl-7-(3-piperidin-1-yl-propoxy)-chromen-4-one]",+ (Inhibition zone diameter ranging 10-20 mm was given a score of ^+),+ (Inhibition zone diameter ranging 10-20 mm was given a score of ^+),+ (Inhibition zone diameter ranging 10-20 mm was given a score of ^+),–,+ (Inhibition zone diameter ranging 10-20 mm was given a score of ^+),+ (Inhibition zone diameter ranging 10-20 mm was given a score of ^+),~12.5 µg/mL,6.25 to 100 µg/mL,12.5 µg/mL,25 µg/mL,25 µg/mL,< 12.5 µg/mL,< 12.5 µg/mL,< 12.5 µg/mL,< 12.5 µg/mL,12.5 µg/mL,100 µg/mL,25 µg/mL,25 µg/mL,–
